Experimental data: PubChem BioAssay (NCI)
Values joined by “and” are separate entries in the source; they are usually repeats but may differ in a detail not shown here. Identical values can stand only once.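 Five compound concentrations were applied to cells in 96-well plates for 48 hours; endpoints were derived by simple linear interpolation of the resulting dose-response curve. At the GI50, growth is halved. TGI denotes the concentration required for complete inhibition of growth.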

Key:
Assay in all cases: inhibition of tumour cell growth, NCI panel, 48 h
HL-60(TB) leukemia = test system: HL-60(TB) leukemia
SK-OV-3 ovarian = test system: SK-OV-3 ovarian
KM12 colon = test system: KM12 colon
NCI-H460 lung = test system: NCI-H460 lung
HT29 colon = test system: HT29 colon
786-0 renal = test system: 786-0 renal
A498 renal = test system: A498 renal
MCF7 breast = test system: MCF7 breast
OVCAR-3 ovarian = test system: OVCAR-3 ovarian
LOX IMVI melanoma = test system: LOX IMVI melanoma
HOP-62 NSCLC = test system: HOP-62 NSCLC
EKVX NSCLC = test system: EKVX NSCLC
SF-539 CNS = test system: SF-539 CNS
BT-549 breast = test system: BT-549 breast
SK-MEL-28 melanoma = test system: SK-MEL-28 melanoma
HCT-116 colon = test system: HCT-116 colon
OVCAR-5 ovarian = test system: OVCAR-5 ovarian
HCT-15 colon = test system: HCT-15 colon
K-562 leukemia = test system: K-562 leukemia
SNB-75 CNS = test system: SNB-75 CNS
HOP-92 NSCLC = test system: HOP-92 NSCLC
OVCAR-8 ovarian = test system: OVCAR-8 ovarian
NCI-H23 lung = test system: NCI-H23 lung
IGROV1 ovarian = test system: IGROV1 ovarian
CCRF-CEM leukemia = test system: CCRF-CEM leukemia
MALME-3M melanoma = test system: MALME-3M melanoma
CAKI-1 renal = test system: CAKI-1 renal
SNB-19 CNS = test system: SNB-19 CNS
SR leukemia = test system: SR leukemia
RPMI-8226 leukemia = test system: RPMI-8226 leukemia
HCC-2998 colon = test system: HCC-2998 colon
RXF 393 renal = test system: RXF 393 renal
DU-145 prostate = test system: DU-145 prostate
U251 CNS = test system: U251 CNS
HS 578T breast = test system: HS 578T breast
TK-10 renal = test system: TK-10 renal
MDA-MB-231 breast = test system: MDA-MB-231 breast
UO-31 renal = test system: UO-31 renal
ACHN renal = test system: ACHN renal
SF-295 CNS = test system: SF-295 CNS
T-47D breast = test system: T-47D breast
NCI-H226 lung = test system: NCI-H226 lung
SK-MEL-5 melanoma = test system: SK-MEL-5 melanoma
SF-268 CNS = test system: SF-268 CNS
MOLT-4 leukemia = test system: MOLT-4 leukemia
COLO 205 colon = test system: COLO 205 colon
A549 NSCLC = test system: A549 NSCLC
OVCAR-4 ovarian = test system: OVCAR-4 ovarian
UACC-257 melanoma = test system: UACC-257 melanoma
SN12C renal = test system: SN12C renal
MDA-MB-435 = test system: MDA-MB-435
NCI-H522 lung = test system: NCI-H522 lung
SW-620 colon = test system: SW-620 colon
PC-3 prostate = test system: PC-3 prostate
SK-MEL-2 melanoma = test system: SK-MEL-2 melanoma
UACC-62 melanoma = test system: UACC-62 melanoma
M14 melanoma = test system: M14 melanoma
NCI/ADR-RES ovarian = test system: NCI/ADR-RES ovarian

## O=C(c1ccc(F)c(F)c1Nc1ccc(I)cc1F)N1CC(O)([C@@H]2CCCCN2)C1
HL-60(TB) leukemia
  GI50: < 0.0172 µM and 0.00962 µM
  TGI: 2.33 µM and > 10 µM
SK-OV-3 ovarian
  GI50: 5.46 µM and 3.26 µM
  TGI: 20.6 µM and > 10 µM
KM12 colon
  GI50: < 0.0376 µM and 0.28 µM
  TGI: 13.2 µM and > 10 µM
NCI-H460 lung
  GI50: 2.92 µM and 2.42 µM
  TGI: 17.9 µM and > 10 µM
HT29 colon
  GI50: < 0.01 µM and 0.00367 µM
  TGI: 11 µM and > 10 µM
786-0 renal
  GI50: 5.74 µM and 3.82 µM
  TGI: 20.6 µM and > 10 µM
A498 renal
  GI50: < 0.0194 µM and 0.0422 µM
  TGI: 0.134 µM and 0.294 µM
MCF7 breast
  GI50: 6.56 µM and > 10 µM
  TGI: 20.1 µM and > 10 µM
OVCAR-3 ovarian
  GI50: 9.85 µM and > 10 µM
  TGI: 22.8 µM and > 10 µM
LOX IMVI melanoma
  GI50: 0.0321 µM and 0.0191 µM
  TGI: 2.15 µM and 1.7 µM
HOP-62 NSCLC
  GI50: 0.349 µM and 0.067 µM
  TGI: 16.9 µM and > 10 µM
EKVX NSCLC
  GI50: 0.308 µM
  TGI: > 10 µM
SF-539 CNS
  GI50: 3.22 µM and > 9.01 µM
  TGI: 18.5 µM and > 10 µM
BT-549 breast
  GI50: 7.52 µM and > 6.99 µM
  TGI: 22 µM and > 10 µM
SK-MEL-28 melanoma
  GI50: < 0.01 µM
  TGI: 0.594 µM
HCT-116 colon
  GI50: < 0.0295 µM and 0.0851 µM
  TGI: 11.9 µM and > 10 µM
OVCAR-5 ovarian
  GI50: < 0.0277 µM and 0.0403 µM
  TGI: 15.1 µM and > 10 µM
HCT-15 colon
  GI50: 1.22 µM and 1.92 µM
  TGI: 16.8 µM and > 10 µM
K-562 leukemia
  GI50: 0.216 µM and 0.574 µM
  TGI: 6.15 µM and > 10 µM
SNB-75 CNS
  GI50: 2.85 µM and 0.574 µM
  TGI: 16 µM and > 10 µM
HOP-92 NSCLC
  GI50: 0.0207 µM and 0.0577 µM
  TGI: 0.239 µM and 0.65 µM
OVCAR-8 ovarian
  GI50: 10.5 µM and > 10 µM
  TGI: 24.5 µM and > 10 µM
NCI-H23 lung
  GI50: < 0.0436 µM and 0.129 µM
  TGI: 10 µM and > 10 µM
IGROV1 ovarian
  GI50: < 0.0461 µM and 0.125 µM
  TGI: 13.8 µM and > 10 µM
CCRF-CEM leukemia
  GI50: 10.2 µM and > 10 µM
  TGI: 26.7 µM and > 10 µM
MALME-3M melanoma
  GI50: < 0.01 µM and 0.00181 µM
  TGI: 0.0133 µM
CAKI-1 renal
  GI50: 2.36 µM
  TGI: 17.9 µM and > 10 µM
SNB-19 CNS
  GI50: 1.59 µM and 0.56 µM
  TGI: 21.1 µM and > 10 µM
SR leukemia
  GI50: 1.64 µM and 3.35 µM
  TGI: 9.66 µM and > 10 µM
RPMI-8226 leukemia
  GI50: 0.992 µM and 3.1 µM
  TGI: 18.2 µM and > 10 µM
HCC-2998 colon
  GI50: < 0.015 µM and 0.0194 µM
  TGI: 0.86 µM and 0.952 µM
RXF 393 renal
  GI50: 0.743 µM and 0.396 µM
  TGI: 7.17 µM and > 6.97 µM
DU-145 prostate
  GI50: 3.32 µM and 3.18 µM
  TGI: 19.9 µM and > 10 µM
U251 CNS
  GI50: 0.492 µM and 0.958 µM
  TGI: 17.9 µM and > 10 µM
HS 578T breast
  GI50: 5.05 µM and > 6.42 µM
  TGI: 29.3 µM and > 10 µM
TK-10 renal
  GI50: 0.271 µM
  TGI: 14.8 µM and > 10 µM
MDA-MB-231 breast
  GI50: < 0.0254 µM and 0.0955 µM
  TGI: 4.18 µM and > 9.06 µM
UO-31 renal
  GI50: 0.0596 µM and 0.538 µM
  TGI: 13.8 µM and > 10 µM
ACHN renal
  GI50: 0.463 µM and 0.637 µM
  TGI: 15.1 µM and > 10 µM
SF-295 CNS
  GI50: 15.7 µM and > 10 µM
  TGI: 32.4 µM and > 10 µM
T-47D breast
  GI50: 9.05 µM and > 10 µM
  TGI: 23.1 µM and > 10 µM
NCI-H226 lung
  GI50: 1.91 µM and 1.24 µM
  TGI: 23.3 µM and > 10 µM
SK-MEL-5 melanoma
  TGI: 8.56 µM and > 10 µM
SF-268 CNS
  GI50: 5.02 µM and 4.94 µM
  TGI: 20.6 µM and > 10 µM
MOLT-4 leukemia
  GI50: 4.62 µM and 5.26 µM
  TGI: 18.8 µM and > 10 µM
COLO 205 colon
  GI50: < 0.01 µM and 0.00238 µM
  TGI: 4.06 µM
A549 NSCLC
  GI50: 0.25 µM and 0.48 µM
  TGI: 17 µM and > 10 µM
OVCAR-4 ovarian
  GI50: 0.58 µM and > 3.96 µM
  TGI: 17.1 µM and > 10 µM
UACC-257 melanoma
  GI50: < 0.01 µM and 0.00413 µM
  TGI: 0.0368 µM and 0.0363 µM
SN12C renal
  GI50: 2.03 µM and 1.14 µM
  TGI: 18.7 µM and > 10 µM
MDA-MB-435
  GI50: < 0.01 µM and 0.00943 µM
  TGI: 15.1 µM and > 10 µM
NCI-H522 lung
  GI50: 4.16 µM and 3.22 µM
  TGI: 21.6 µM and > 10 µM
SW-620 colon
  GI50: < 0.0215 µM and 0.0563 µM
  TGI: 14.4 µM and > 10 µM
PC-3 prostate
  GI50: 5.57 µM and > 9.27 µM
  TGI: 18.8 µM and > 10 µM
SK-MEL-2 melanoma
  GI50: < 0.013 µM and 0.0327 µM
  TGI: < 0.0268 µM
UACC-62 melanoma
  GI50: < 0.01 µM and 0.00339 µM
  TGI: < 0.0158 µM and 0.0384 µM
M14 melanoma
  GI50: < 0.01 µM and 0.00283 µM
  TGI: 0.205 µM and 0.0436 µM
NCI/ADR-RES ovarian
  GI50: 6.56 µM and > 7.36 µM
  TGI: 21.5 µM and > 10 µM
